Source: EP4628084A1, “NAPHTHALENE-DERIVATIVE-BASED THERAPEUTIC DRUG FOR OPHTHA[…]” (Kyoto University, priority 2022, dated 2024)

Key:
Type in all cases: physicochemical
[1] = Solubility of KUS121 in water; conditions: at 25°C
[2] = Preliminary experiment: soluble concentration of KUS121 in normal PBS buffer
Description: The maximum dose of KUS121 to the vitreous body of the eye is 50 µg/eye, and the liquid volume that can be administered into the vitreous body is preferably about 100 µL or less. […] In view of these premises and the above-mentioned problems, the present inventors have extensively studied to design an injection formulation of KUS121 in a normal PBS buffer that can be administered into the vitreous body, wherein about 50 µg of KUS121 is dissolved in a normal PBS buffer (about 100 µL), i.e., a formulation that allows a concentration setting of 0.5 mg/mL and matches the osmotic pressure in the vitreous body. As a result, the present inventors have conducted the following trials and then have found the following things: i.e., the present inventors first prepared 1 mL of 0.1 mg/mL KUS121 aqueous solution by dissolving KUS121 in water for injection and then adding a PBS buffer solution with about twice the concentration of normal to the KUS121 solution, in which the PBS concentration is 1/5 of the normal concentration. Then, the prepared KUS121 aqueous solution was lyophilized, and 200 µL (0.2 mL) of water for injection [200 µL (0.2 mL) corresponds to 1/5 the volume before the lyophilization] was added to the lyophilized product. […]

[3] = Solubility of KUS121 in PBS buffer at different temperatures (filtrate quantified by HPLC); conditions: for solubility of KUS121: detection limit about 1 µg/mL, quantification limit 5 µg/mL; for solubility: PBS buffer solution, aqueous buffer, thermodynamic from solid
Description: A PBS buffer solution comprising 1.6 mg of sodium chloride, 0.229 mg of disodium hydrogen phosphate, 0.04 mg of potassium dihydrogen phosphate, and 0.04 mg of potassium chloride per mL of the solution was prepared, and the temperature of the PBS buffer solution was adjusted to 5°C, 25°C, 40°C, 50°C, and 60°C. KUS121 was added little by little to each solution at the different temperatures and stirred. After stirring for a sufficient time period from the time when some undissolved material appeared, the solution was filtered. As a result of quantifying the filtrate using HPLC, the solubility of KUS121 at each temperature was as follows (detection limit: about 1 µg/mL, quantification limit: 5 µg/mL) .

## Cc1cc(F)ccc1-c1ccc(N=Nc2cc(S(=O)(=O)[O-])c3ccccc3c2N)cn1.O.O.[Na+] [KUS121, Sodium 4-amino-3-[6-(4-fluoro-2-methylphenyl)pyridin-3-ylazo]naphthalene-1-sulfonate dihydrate]
[1]
  solubility: ~2800 µg/mL
[2]; PBS buffer, result in words
  solubility of KUS121 in PBS buffer: extremely low
[2]; normal PBS buffer solution, aqueous buffer, normal PBS buffer, room temperature, preliminary experiment
  solubility: ≤ 10 µg/mL
[3]; 5°C
  solubility of KUS121: below detection limit
[3]; 25°C
  solubility of KUS121: below detection limit
[3]; 40°C
  solubility: 7 µg/mL
[3]; 50°C
  solubility: 47 µg/mL
[3]; 60°C
  solubility: 132 µg/mL
